# Laboratory results as given in article PMC10579241, “Impact of trifluoromethyl and sulfonyl groups on the biological activity of novel aryl-urea derivatives: synthesis, in-vitro, in-silico and SAR studies” (Scientific Reports, 2023).
# Read-outs that look alike come from different tables or passages of the source. Marks after values point to notes of the source that are not given here.
# How the values were obtained:
# EGFR = assay: qRT-PCR, EGFR in A549 cells; format: cell-based, human; details: versus negative samples
# A549 [1] = assay: DNA damage, comet assay, A549; format: cell-based, human
# in vitro = format: cell-based; details: human, BJ1 normal skin fibroblast cells, 100 μg/mL
# [2] = system: hepatocellular carcinoma cell line (HePG2); assay: cells; format: cell-based; details: Homo sapiens, 48 h
# prostate cancer (PC3) = assay: cells; format: cell-based; details: Homo sapiens, 48 h
# Bacillus mycoides [3] = assay: microbe, parasite or virus in culture; format: cell-based
# Candida albicans [4] = assay: Agar well diffusion, C. albicans; format: cell-based
# [5] = system: osteosarcoma cell line (HOS); assay: cells; format: cell-based; details: Homo sapiens, 48 h, 100 μg/mL
# A549 [6] = assay: DNA fragmentation assay, A549; format: cell-based, human
# Bacillus mycoides [7] = assay: microbe, parasite or virus in culture; format: cell-based; remark: listed apart in the source
# Candida albicans [8] = assay: MIC by serial dilution (agar wells), C. albicans; format: cell-based
# skin cancer (A431) = assay: cells; format: cell-based; details: Homo sapiens, A-431, 100 μg/mL, 48 h
# Escherichia coli [9] = assay: Agar well diffusion, E. coli; format: cell-based; details: Escherichia coli, read-out: Inhibition zones diameter
# Escherichia coli [10] = assay: MIC by serial dilution (agar wells), E. coli; format: cell-based
# KRAS = assay: qRT-PCR, KRAS in A549 cells; format: cell-based, human; details: versus negative samples
# colon cancer (HCT116) = assay: cells; format: cell-based; details: Homo sapiens
# [11] = system: pancreatic cancer cell line (PACA2); assay: cells; format: cell-based; details: Homo sapiens, PaCa-2, 48 h
# [12] = system: human lung carcinoma (A549); assay: cells; format: cell-based
# [13] = read-out: Minimum inhibition concentration (MIC)
# [14] = 0.00488 mg/mL, 150 µL in DMSO, 15 mm agar well
# [15] = 0.00975 mg/mL, 150 µL in DMSO, 15 mm agar well
# [16] = 0.0195 mg/mL, 150 µL in DMSO, 15 mm agar well
# [17] = 0.0391 mg/mL, 150 µL in DMSO, 15 mm agar well
# [18] = 0.0781 mg/mL, 150 µL in DMSO, 15 mm agar well
# [19] = 0.1563 mg/mL, 150 µL in DMSO, 15 mm agar well
# [20] = 0.3125 mg/mL, 150 µL in DMSO, 15 mm agar well
# [21] = 0.625 mg/mL, 150 µL in DMSO, 15 mm agar well
# [22] = 1.25 mg/mL, 150 µL in DMSO, 15 mm agar well
# [23] = 2.50 mg/mL, 150 µL in DMSO, 15 mm agar well
# [24] = 5.00 mg/mL, 150 µL in DMSO, 15 mm agar well
# [25] = 10.0 mg/mL, 150 µL in DMSO, 15 mm agar well
smiles,measurement,setting,value
"Cc1ccc(S(=O)(=O)NC(=O)Nc2ccc(OC(F)(F)F)cc2)cc1 [Compound 8, 4-Methyl-N-[(4-{trifluoromethoxy}phenyl)carbamoyl]benzenesulfonamide]",EGFR gene expression level,EGFR,significant reduction
same,DNA damaged cells % (mean ± SEM),A549 [1],24.75 ± 1.03^a %
same,"Class 0 (no tail), number of cells",A549 [1]; of 400 cells analyzed,301
same,"Class 1 (tail length < diameter of nucleus), number of cells",A549 [1]; of 400 cells analyzed,39
same,"Class 2 (tail length between 1 and 2 × the diameter of nucleus), number of cells",A549 [1]; of 400 cells analyzed,38
same,"Class 3 (tail length > 2 × the diameter of nucleus), number of cells",A549 [1]; of 400 cells analyzed,22
same,"No. of cells, Comets",A549 [1]; of 400 cells analyzed,99
same,"mortality at 48 h, 100 µg/mL",in vitro,6.2 ± 1.54%
same,mortality at 100 µg/mL,[2]; 100 μg/mL,100%
same,IC50,[2]; MTT,74 ± 0.29 µM
same,mortality at 100 µg/mL,prostate cancer (PC3); 100 μg/mL,100%
same,IC50,prostate cancer (PC3); MTT,57.2 ± 0.39 µM
same,zone of inhibition at 4.88 µg/mL,Bacillus mycoides [3]; read-out: Inhibition zone,17 mm
same,zone of inhibition at 9.75 µg/mL,Bacillus mycoides [3]; read-out: Inhibition zone,17 mm
same,zone of inhibition at 19.5 µg/mL,Bacillus mycoides [3]; read-out: Inhibition zone,17 mm
same,zone of inhibition at 39.1 µg/mL,Bacillus mycoides [3]; read-out: Inhibition zone,17 mm
same,zone of inhibition at 78.1 µg/mL,Bacillus mycoides [3]; read-out: Inhibition zone,17 mm
same,zone of inhibition at 156.3 µg/mL,Bacillus mycoides [3]; read-out: Inhibition zone,17 mm
same,zone of inhibition at 312.5 µg/mL,Bacillus mycoides [3]; read-out: Inhibition zone,20 mm
same,zone of inhibition at 625 µg/mL,Bacillus mycoides [3]; read-out: Inhibition zone,23 mm
same,zone of inhibition at 1250 µg/mL,Bacillus mycoides [3]; read-out: Inhibition zone,26 mm
same,zone of inhibition at 2500 µg/mL,Bacillus mycoides [3]; read-out: Inhibition zone,27 mm
same,zone of inhibition at 5000 µg/mL,Bacillus mycoides [3]; read-out: Inhibition zone,27 mm
same,zone of inhibition at 10000 µg/mL,Bacillus mycoides [3]; read-out: Inhibition zone,32 mm
same,MIC,Bacillus mycoides [3]; [13],4.88 µg/mL
same,Inhibition zones diameter,"Candida albicans [4]; C. albicans, 200 μL of 10 mg/mL in DMSO in 15 mm holes, overnight 37 °C",38 ± 0.67 mm
same,zone of inhibition at 10000 µg/mL,"Candida albicans [4]; Candida albicans, read-out: Inhibition zones diameter",38 mm
same,mortality at 100 µg/mL,[5],> 50%
same,Change (DNA fragmentation versus untreated cells),A549 [6],22.8
same,DNA fragmentation % M ± SEM,"A549 [6]; IC50 concentration, 24 h",34.2 ± 0.57^a %
same,Inhibition,A549 [6]; doxorubicin = 0.0,16.92
same,Inhibition zones diameter,"Bacillus mycoides [7]; B. mycoides, 200 μL of 10 mg/mL in DMSO in 15 mm holes, overnight 37 °C",37 ± 0.23 mm
same,zone of inhibition at 10000 µg/mL,"Bacillus mycoides [7]; Bacillus mycoides, read-out: Inhibition zones diameter",37 mm
same,zone of inhibition at 4.88 µg/mL,Candida albicans [8]; [14],16 mm
same,zone of inhibition at 9.75 µg/mL,Candida albicans [8]; [15],17 mm
same,zone of inhibition at 19.5 µg/mL,Candida albicans [8]; [16],17 mm
same,zone of inhibition at 39.1 µg/mL,Candida albicans [8]; [17],17 mm
same,zone of inhibition at 78.1 µg/mL,Candida albicans [8]; [18],18 mm
same,zone of inhibition at 156.3 µg/mL,Candida albicans [8]; [19],23 mm
same,zone of inhibition at 312.5 µg/mL,Candida albicans [8]; [20],25 mm
same,zone of inhibition at 625 µg/mL,Candida albicans [8]; [21],27 mm
same,zone of inhibition at 1250 µg/mL,Candida albicans [8]; [22],28 mm
same,zone of inhibition at 2500 µg/mL,Candida albicans [8]; [23],30 mm
same,zone of inhibition at 5000 µg/mL,Candida albicans [8]; [24],32 mm
same,zone of inhibition at 10000 µg/mL,Candida albicans [8]; [25],34 mm
same,MIC,Candida albicans [8]; [13],4.88 µg/mL
same,mortality at 100 µg/mL,skin cancer (A431),27.5 ± 0.64%
same,zone of inhibition at 10000 µg/mL,Escherichia coli [9],29 ± 0.44 mm
same,zone of inhibition at 4.88 µg/mL,Escherichia coli [10]; [14],16 mm
same,zone of inhibition at 9.75 µg/mL,Escherichia coli [10]; [15],17 mm
same,zone of inhibition at 19.5 µg/mL,Escherichia coli [10]; [16],17 mm
same,zone of inhibition at 39.1 µg/mL,Escherichia coli [10]; [17],18 mm
same,zone of inhibition at 78.1 µg/mL,Escherichia coli [10]; [18],18 mm
same,zone of inhibition at 156.3 µg/mL,Escherichia coli [10]; [19],19 mm
same,zone of inhibition at 312.5 µg/mL,Escherichia coli [10]; [20],23 mm
same,zone of inhibition at 625 µg/mL,Escherichia coli [10]; [21],25 mm
same,zone of inhibition at 1250 µg/mL,Escherichia coli [10]; [22],27 mm
same,zone of inhibition at 2500 µg/mL,Escherichia coli [10]; [23],28 mm
same,zone of inhibition at 5000 µg/mL,Escherichia coli [10]; [24],29 mm
same,zone of inhibition at 10000 µg/mL,Escherichia coli [10]; [25],32 mm
same,MIC,Escherichia coli [10]; [13],4.88 µg/mL
same,KRAS gene expression level,KRAS,significant reduction
same,mortality at 100 µg/mL,"colon cancer (HCT116); HCT-116, 48 h, 100 μg/mL",100%
same,IC50,"colon cancer (HCT116); HCT-116, MTT, 48 h",47.3 ± 0.91 µM
same,mortality at 100 µg/mL,[11]; 100 μg/mL,100%
same,IC50,[11]; MTT,22.4 ± 0.49 µM
same,mortality at 100 µg/mL,"[12]; A549, 48 h, 100 μg/mL",100%
same,IC50,"[12]; MTT, 48 h",55.8 ± 0.11 µM
